Assay results from US20140010939A1, “Sweetness Enhancers, Sweetener Compositions, Methods of Making the Same and Consumables Containing the Same” (Nutrinova Nutrition Specialties & Food Ingredients GmbH, priority 2011, published 2014).

Test: Solubility assessment in buffer (visual check by two persons)
Format: physicochemical
Description: 20 μmol (8.96 mg) of the compound of formula (Ia) were used for samples preparation. The samples were partitioned into two portions for each buffer system and placed into 1.6 ml glass vials. To each of the vials 100 μl of the respective buffer solution was added to prepare the 100 mM samples. All Samples were thoroughly sonicated and vortexed to yield homogenous solutions or suspensions. The resulting set of samples consisted of • Compound of formula (Ia)—100 mM, buffer 3.0 • Compound of formula (Ia)—100 mM, buffer 6.5
In a second step from each of the prior listed samples 7.5 μl were pipetted into 1.6 ml glass vials followed by addition of 142.5 μl of the respective buffer solution. The resulting set of samples consisted of: • Compound of formula (Ia)—5 mM, buffer 3.0 • Compound of formula (Ia)—5 mM, buffer 6.5
In a third step, after sonication and vortexing to yield homogenous solutions or suspensions, 25 μl from each of the samples listed above were pipetted into 1.6 ml glass vials followed by addition of 100 μl of the respective buffer solution. The resulting set of samples consisted of: • Compound of formula (Ia)—1 mM, buffer 3.0 • Compound of formula (Ia)—1 mM, buffer 6.5
After the preparation of all 6 samples, the entire set was sonicated and vortexed again.
Afterwards the set of 6 samples was placed into a deep freezer and stored at −22° C. for 72 h. After that period, the samples were thawed, sonicated, and vortexed.
In a final step the set of 6 samples was placed into a dark box at 23° C. for 72 h. After that period, the samples were sonicated, and vortexed.
The results of the solubility study are documented in three tables. Three categories for the state of solution are in generally used: “Yes”, “Incomplete” and “No”. The category “Yes” is only used in case of a clear flawless solution. The category “Incomplete” is used in case of a visible strong reduction of undissolved matter. The category “No” was used for all other cases.

For CC(=O)N(O)CCCCCNC(=O)C(O)(CC(=O)O)CC(=O)NCCCN(O)C(C)=O (stereo not shown) [compound of formula (Ia)], the Dissolved after freezing/thawing (1 mM, buffer 3.0, after −22° C. for 72 h and thawing) was “yes”, the “Dissolved after three days at room temperature” value (“Dissolved after three days” for short) (1 mM, buffer 3.0, dark box at 23° C. for 72 h) was “yes” and the Immediately dissolved (1 mM, buffer 3.0, directly after sample preparation) was “yes”. For the same compound, the Dissolved after freezing/thawing (1 mM, buffer 6.5, after −22° C. for 72 h and thawing) was “yes”, the “Dissolved after three days” value (1 mM, buffer 6.5, dark box at 23° C. for 72 h) was “yes” and the Immediately dissolved (1 mM, buffer 6.5, directly after sample preparation) was “yes”. The Dissolved after freezing/thawing (5 mM, buffer 3.0, after −22° C. for 72 h and thawing) was “yes”, the “Dissolved after three days” value (5 mM, buffer 3.0, dark box at 23° C. for 72 h) was “yes” and the Immediately dissolved (5 mM, buffer 3.0, directly after sample preparation) was “yes”. The Dissolved after freezing/thawing (5 mM, buffer 6.5, after −22° C. for 72 h and thawing) was “yes”, the “Dissolved after three days” value (5 mM, buffer 6.5, dark box at 23° C. for 72 h) was “yes” and the Immediately dissolved (5 mM, buffer 6.5, directly after sample preparation) was “yes”. For the same compound, the Dissolved after freezing/thawing (100 mM, buffer 3.0, after −22° C. for 72 h and thawing) was “yes”, the “Dissolved after three days” value (100 mM, buffer 3.0, dark box at 23° C. for 72 h) was “yes” and the Immediately dissolved (100 mM, buffer 3.0, directly after sample preparation) was “yes”. For the same compound, the Dissolved after freezing/thawing (100 mM, buffer 6.5, after −22° C. for 72 h and thawing) was “yes”, the “Dissolved after three days” value (100 mM, buffer 6.5, dark box at 23° C. for 72 h) was “yes” and the Immediately dissolved (100 mM, buffer 6.5, directly after sample preparation) was “yes”. The “Solubility (overall)” value (summary: 1, 5 and 100 mM in water with buffer at pH 3.0 and 6.5) was “immediately dissolved at all conditions”.
